In patent US20110301142A1, “ANTAGONISTS OF LYSOPHOSPHATIDIC ACID RECEPTORS” (priority 2008, published 2011):

Key:
human LPA1 = molecular target: T1, human LPA1 (Homo sapiens, UniProt Q92633); assay: LPA1 calcium flux assay (HLPA1 Ca Flux); format: cell-based; conditions: Human LPA1 expressing CHO cells, stimulated with 10 nM LPA
T1 construct: the full-length cDNA for human LPA1 was obtained by PCR of the reverse transcription reaction; expressed in transfected cells
Method in brief: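 CHO cells stably expressing cloned human LPA1, serum-starved overnight and loaded with Calcium 4 dye, were preincubated 30 min at room temperature with compound. Cells were then challenged with 10 nM LPA and intracellular Ca2+ measured; IC50 values came from titration curves.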

human LPA3 = molecular target: T2, human LPA3 (Homo sapiens, UniProt Q9UBY5); assay: LPA3 calcium flux assay; format: cell-based; conditions: Human LPA3 expressing CHO cells, stimulated with 10 nM LPA; read-out: HLPA3 Ca Flux IC50
T2 construct: The full-length cDNA fragment for human LPA3 was obtained by PCR from the vector; expressed in transfected cells; cDNA from the Missouri S&T cDNA Resource Center
T2 sequence (Q9UBY5 1-353): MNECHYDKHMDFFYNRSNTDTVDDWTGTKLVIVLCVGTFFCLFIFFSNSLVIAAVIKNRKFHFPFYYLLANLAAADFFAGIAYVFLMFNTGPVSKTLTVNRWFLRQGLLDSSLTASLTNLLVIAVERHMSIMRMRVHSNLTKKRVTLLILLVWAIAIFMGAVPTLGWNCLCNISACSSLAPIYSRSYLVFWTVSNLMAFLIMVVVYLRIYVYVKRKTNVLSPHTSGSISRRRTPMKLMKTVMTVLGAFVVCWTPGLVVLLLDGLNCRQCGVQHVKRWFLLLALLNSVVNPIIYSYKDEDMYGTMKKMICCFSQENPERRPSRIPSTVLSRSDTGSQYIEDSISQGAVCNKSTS
Method in brief: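 Stably transfected CHO cells, serum-starved overnight, loaded with Calcium 4 dye 1 h at 37 °C in HBSS/20 mM Hepes with 0.3% fatty-acid-free HSA. Compounds preincubated 30 min at room temperature, then cells stimulated with 10 nM LPA; intracellular Ca2+ read by fluorescence; IC50 from titration curves.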

T1 sequence (Q92633 whole entry): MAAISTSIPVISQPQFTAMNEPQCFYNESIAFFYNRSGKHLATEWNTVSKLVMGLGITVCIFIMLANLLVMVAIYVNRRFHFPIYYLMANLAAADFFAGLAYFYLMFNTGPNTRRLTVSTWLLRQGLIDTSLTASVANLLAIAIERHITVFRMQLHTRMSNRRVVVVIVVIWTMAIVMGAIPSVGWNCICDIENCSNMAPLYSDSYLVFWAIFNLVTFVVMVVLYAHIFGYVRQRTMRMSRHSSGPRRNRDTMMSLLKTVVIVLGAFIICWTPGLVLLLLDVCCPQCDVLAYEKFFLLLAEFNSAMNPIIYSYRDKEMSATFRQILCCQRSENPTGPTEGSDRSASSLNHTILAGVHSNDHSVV

SMILES | IC50 (human LPA1) | IC50 (human LPA3)
Cc1noc(-c2ccc(-c3ccc(CC(=O)O)cc3)c(Cl)c2)c1NC(=O)O[C@H](C)c1ccccc1Cl [Compound 1-131, (2′-Chloro-4′-{4-[(R)-1-(2-chloro-phenyl)-ethoxycarbonylamino]-3-methyl-isoxazol-5-yl}-biphenyl-4-yl)-acetic acid] | < 0.3 µM | 1 to 50 µM
Cc1noc(-c2ccc(-c3ccc(CC(=O)O)cc3)c(F)c2)c1NC(=O)O[C@H](C)c1ccccc1Cl [Compound 1-132, (4′-{4-[(R)-1-(2-Chloro-phenyl)-ethoxycarbonylamino]-3-methyl-isoxazol-5-yl}-2′-fluoro-biphenyl-4-yl)-acetic acid] | < 0.3 µM | 1 to 50 µM
Cc1noc(-c2ccc(-c3ccc(C(=O)O)cc3)cc2)c1NC(=O)O[C@H](C)c1ccccc1Cl [Compound 1-133, 4′-{4-[(R)-1-(2-Chloro-phenyl)-ethoxycarbonylamino]-3-methyl-isoxazol-5-yl}-biphenyl-4-carboxylic acid] | < 0.3 µM | 0.3 to 1 µM
Cc1noc(-c2ccc(Oc3cccc(CC(=O)O)c3)cc2)c1NC(=O)O[C@H](C)c1ccccc1Cl [Compound 1-137, [3-(4-{4-[(R)-1-(2-Chloro-phenyl)-ethoxycarbonylamino]-3-methyl-isoxazol-5-yl}-phenoxy)-phenyl]acetic acid] | < 0.3 µM | 1 to 50 µM
Cc1noc(-c2ccc(Oc3ccc(CC(=O)O)cc3)cc2)c1NC(=O)O[C@H](C)c1ccccc1Cl [Compound 1-138, [4-(4-{4-[(R)-1-(2-Chloro-phenyl)-ethoxycarbonylamino]-3-methyl-isoxazol-5-yl}-phenoxy)-phenyl]-acetic acid] | < 0.3 µM | 0.3 to 1 µM
Cc1noc(-c2ccc(-c3ccc(C(O)C(=O)O)cc3)cc2)c1NC(=O)O[C@H](C)c1ccccc1F (stereo partly drawn) [Compound 1-139, (4′-{4-[(R)-1-(2-Fluoro-phenyl)-ethoxycarbonylamino]-3-methyl-isoxazol-5-yl}-biphenyl-4-yl)-hydroxy-acetic acid] | < 0.3 µM | 1 to 50 µM
CCC(C(=O)O)c1ccc(-c2ccc(-c3onc(C)c3NC(=O)O[C@H](C)c3ccccc3)cn2)cc1 (stereo partly shown) [Compound 1-142] | < 0.3 µM | 1 to 50 µM
Cc1noc(-c2ccc(-c3ccc(CC(=O)O)cc3)cc2)c1NC(=O)O[C@@H](C)c1ccccc1 [Compound 1-143, {4′-[3-Methyl-4-((S)-1-phenyl-ethoxycarbonylamino)-isoxazol-5-yl]-biphenyl-4-yl}-acetic acid] | < 0.3 µM | 1 to 50 µM
Cc1noc(-c2ccc(-c3ccc(CC(=O)O)cc3)cc2)c1NC(=O)O[C@H](C)c1cccc(O)c1 [Compound 1-144, (4′-{4-[(R)-1-(3-Hydroxy-phenyl)-ethoxycarbonylamino]-3-methyl-isoxazol-5-yl}-biphenyl-4-yl)-acetic acid] | 1 to 50 µM | > 50 µM
Cc1noc(-c2ccc(-c3ccc(CC#N)cc3)cc2)c1NC(=O)O[C@H](C)c1ccccc1Cl [Compound 2-2, [5-(4′-Cyanomethyl-biphenyl-4-yl)-3-methyl-isoxazol-4-yl]-carbamic acid (R)-1-(2-chloro-phenyl)-ethyl ester] | < 0.3 µM | 1 to 50 µM
Cc1noc(-c2ccc(-c3ccc(CC#N)cc3)cc2)c1NC(=O)O[C@H](C)c1ccccc1F [Compound 2-3, [5-(4′-Cyanomethyl-biphenyl-4-yl)-3-methyl-isoxazol-4-yl]-carbamic acid (R)-1-(2-fluoro-phenyl)-ethyl ester] | < 0.3 µM | > 50 µM
Cc1noc(-c2ccc(-c3ccc(Cc4nn[nH]n4)cc3)cc2)c1NC(=O)O[C@H](C)c1ccccc1F [Compound 2-4, {3-Methyl-5-[4′-(2H-tetrazol-5-ylmethyl)-biphenyl-4-yl]-isoxazol-4-yl}-carbamic acid (R)-1-(2-fluoro-phenyl)-ethyl ester] | < 0.3 µM | 1 to 50 µM
Cc1noc(-c2ccc(-c3ccc(Cc4nn[nH]n4)cc3)cc2)c1NC(=O)O[C@H](C)c1ccccc1Cl [Compound 2-5, {3-Methyl-5-[4′-(2H-tetrazol-5-ylmethyl)-biphenyl-4-yl]-isoxazol-4-yl}-carbamic acid (R)-1-(2-chloro-phenyl)-ethyl ester] | < 0.3 µM | 1 to 50 µM
Cc1noc(-c2cnc(-c3ccc(CC(=O)O)cc3)s2)c1NC(=O)O[C@H](C)c1ccccc1F [Compound 3-4, [4-(5-{4-[(R)-1-(2-Fluoro-phenyl)-ethoxycarbonylamino]-3-methyl-isoxazol-5-yl}-thiazol-2-yl)-phenyl]-acetic acid] | < 0.3 µM | > 50 µM
